The values below come from PubChem BioAssay (NCI).

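Grown in 96-well plates, cells were treated for 48 hours with each compound at five concentrations. Insufficient inhibition: endpoint recorded as highest concentration tested. Here, GI50 denotes the concentration required for 50% inhibition of growth. Definition used: TGI = concentration required for complete inhibition of growth.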

Test systems include MDA-MB-435; SF-295 CNS; SF-539 CNS; M14 melanoma; SK-OV-3 ovarian; OVCAR-3 ovarian; BT-549 breast; CCRF-CEM leukemia; A549 NSCLC; HCC-2998 colon.
Holding throughout (experiment): growth of human tumour cells (NCI), 48 h

For the compound `CC1(C)Oc2ccc3c(=O)cc(-c4ccccc4)oc3c2C1C(=O)O` (stereo not given), the TGI in the test on MDA-MB-435, with SF-295 CNS, with SF-539 CNS, with M14 melanoma, with SK-OV-3 ovarian and in the test on OVCAR-3 ovarian was > 100 µM each time. In addition, the TGI in the test on BT-549 breast, with CCRF-CEM leukemia, in the test on A549 NSCLC and with HCC-2998 colon was > 100 µM each time.

Consider `COC(NC(=O)Nc1ccccc1C)(C(F)(F)F)C(F)(F)F`, for which the TGI in the test on MDA-MB-435, in the test on SF-295 CNS, with SF-539 CNS, with M14 melanoma, with SK-OV-3 ovarian and in the test with OVCAR-3 ovarian was > 100 µM each time. Also, the TGI with BT-549 breast, with CCRF-CEM leukemia, in the test on A549 NSCLC and with HCC-2998 colon was > 100 µM throughout.

As to `COc1ccccc1NC(=O)CC(=O)NN`, the TGI in the test on MDA-MB-435, with SF-295 CNS, in the test on SF-539 CNS, in the test on SK-OV-3 ovarian, in the test with OVCAR-3 ovarian and in the test on BT-549 breast was > 100 µM each time. Also, the TGI with CCRF-CEM leukemia, in the test on A549 NSCLC and with HCC-2998 colon was > 100 µM each time.

As for `Clc1ccc(C2=CCN3CC=C(c4ccc(Cl)cc4)C23)cc1`, the TGI is 22.9 µM with MDA-MB-435; 28.9 µM in the test with SF-295 CNS; 31.1 µM in the test on SF-539 CNS; 22.6 µM in the test on M14 melanoma; 25.1 µM in the test on OVCAR-3 ovarian; 24 µM with BT-549 breast. Also, the TGI stood at 52 µM in the test with CCRF-CEM leukemia, 28.3 µM in the test on A549 NSCLC and 11.3 µM in the test with HCC-2998 colon.

On to `CCCCCCCCOc1ccc(/C=C/C2=[N+](CCO)CCO2)cc1`, for which the TGI with MDA-MB-435 was determined as 14.5 µM; with SF-295 CNS, 16.9 µM; in the test on SF-539 CNS it was 11 µM; in the test with M14 melanoma it was 20 µM; in the test with SK-OV-3 ovarian, 11.9 µM; in the test on OVCAR-3 ovarian, 28 µM. Also, the TGI with BT-549 breast was 14.5 µM; in the test with CCRF-CEM leukemia, 6.43 µM; with A549 NSCLC, 10.7 µM; in the test with HCC-2998 colon, 11.9 µM.

Regarding `O=C(O)/C=C\C(=O)Nn1c(Cc2ccc(Cl)cc2)n[nH]c1=O`, the TGI in the test with MDA-MB-435, in the test on SF-295 CNS, with SF-539 CNS, with M14 melanoma, in the test with SK-OV-3 ovarian and with OVCAR-3 ovarian was > 100 µM each time. In addition, the TGI in the test on BT-549 breast, in the test with CCRF-CEM leukemia, in the test on A549 NSCLC and in the test with HCC-2998 colon was > 100 µM each time.

For `Cc1ccccc1NC(=O)CC(=O)NNC(Sc1ccccc1)c1cc(N=Nc2ccc(Br)cc2)ccc1O` (stereo not given), the TGI in the test with MDA-MB-435 is > 10 µM; in the test on SF-295 CNS it was > 10 µM; in the test with SF-539 CNS it was 4.73 µM; in the test on M14 melanoma it was 2.63 µM; with SK-OV-3 ovarian, > 10 µM; in the test with OVCAR-3 ovarian, 4.91 µM. For the same compound, the TGI in the test on BT-549 breast, in the test on CCRF-CEM leukemia, in the test with A549 NSCLC and with HCC-2998 colon was > 10 µM throughout.

As to `Cc1ccc(S(=O)(=O)NC(=O)C2=C3SCCN3C(=O)N(S(=O)(=O)c3ccc(C)cc3)C2c2ccccc2)cc1` (stereo not given), the TGI in the test on MDA-MB-435 was 61 µM; in the test on SF-295 CNS it was > 100 µM; with SF-539 CNS, 61.6 µM; with M14 melanoma, > 100 µM; in the test on SK-OV-3 ovarian, 66.8 µM; in the test with OVCAR-3 ovarian, 59.1 µM. In addition, the TGI with BT-549 breast was > 100 µM; in the test with CCRF-CEM leukemia it was 60.5 µM; in the test with A549 NSCLC it was > 100 µM; in the test on HCC-2998 colon, 48 µM.

As for `Cc1cc(S(=O)(=O)/N=C(/NN)Nc2ccc(Cl)cc2)c(S)cc1Cl`, the TGI came out at 25.6 µM with MDA-MB-435; 42.6 µM with SF-539 CNS; 34.6 µM in the test with M14 melanoma; 49.5 µM with SK-OV-3 ovarian; 82.2 µM in the test on OVCAR-3 ovarian; 34.6 µM in the test on BT-549 breast. Further, the values for the TGI in the test on CCRF-CEM leukemia, with A549 NSCLC and in the test on HCC-2998 colon were 94 µM, 23.8 µM and 23.8 µM, respectively.

`COc1ccccc1C1C(C#N)=C(N)Oc2n[nH]c(C)c21` (stereo not given): the GI50 in the test on MDA-MB-435 is 75.1 µM; with SF-295 CNS, > 100 µM; in the test on SF-539 CNS, > 100 µM; with M14 melanoma it was > 100 µM; in the test with SK-OV-3 ovarian it was > 100 µM; with OVCAR-3 ovarian, > 100 µM. The GI50 in the test on BT-549 breast is > 100 µM; with CCRF-CEM leukemia, 22.8 µM; with A549 NSCLC, > 100 µM; with HCC-2998 colon, > 100 µM. Moreover, the TGI with MDA-MB-435, in the test with SF-295 CNS, with SF-539 CNS, in the test on M14 melanoma, with SK-OV-3 ovarian and with OVCAR-3 ovarian was > 100 µM each time. Besides, the TGI in the test with BT-549 breast, in the test with CCRF-CEM leukemia, with A549 NSCLC and in the test on HCC-2998 colon was > 100 µM each time.

For the compound `CC1CCC2(OC1)OC1C(O)C3C4CCC5CC(OC6OC(CO)C(OC7OC(CO)C(O)C(OC8OCC(O)C(O)C8O)C7OC7OC(CO)C(O)C(OC8OC(CO)C(O)C(O)C8O)C7O)C(O)C6O)C(O)CC5(C)C4CCC3(C)C1C2C` (stereo not given), the TGI is 30 µM with MDA-MB-435; 3.66 µM with SF-295 CNS; 10.9 µM with SF-539 CNS; 24.9 µM in the test with M14 melanoma; 5.57 µM in the test on SK-OV-3 ovarian; 3.32 µM in the test on OVCAR-3 ovarian. Also, the TGI is 3.19 µM in the test on BT-549 breast, 10.5 µM with CCRF-CEM leukemia, 4.32 µM in the test with A549 NSCLC and 4.69 µM with HCC-2998 colon.

Take `CCOC1=C(c2ccccc2)N2CCCCC2O1` (stereo not given): the TGI in the test with MDA-MB-435 was 16.8 µM; with SF-295 CNS it was 15.5 µM; in the test on SF-539 CNS, 34.8 µM; in the test on M14 melanoma, 12.1 µM; in the test on OVCAR-3 ovarian, > 44.5 µM; in the test with BT-549 breast, 26.3 µM. Besides, the values for the TGI in the test on CCRF-CEM leukemia, in the test on A549 NSCLC and in the test with HCC-2998 colon were > 72.4 µM, > 100 µM and 12.8 µM, respectively.

Regarding `C#CCOC(=O)c1ccc(OC(C)=O)cc1`, the TGI in the test with MDA-MB-435, in the test with SF-295 CNS, in the test on SF-539 CNS, in the test with M14 melanoma, in the test on SK-OV-3 ovarian and in the test with OVCAR-3 ovarian was > 100 µM in each case. Also, the TGI in the test with BT-549 breast, in the test on CCRF-CEM leukemia and with HCC-2998 colon was > 100 µM in each case.
